Laboratory results reported in patent US7872018B2, “Compounds and methods for kinase modulation, and indications therefor” (Plexxikon, Inc., priority 2006, dated 2011).

How the values were obtained:
[1] = molecular target: T1, TrkA (Homo sapiens, UniProt P04629); assay: TrkA biochemical assay (AlphaScreen); conditions: under the test conditions employed; read-out: IC50 toward kinase TrkA
T1 construct: purchased Upstate Biotech 14-571
Method: Compounds tested were dissolved in DMSO (1 μL) and added to a white 384-well plate (Costar #3705). […] Each sample was at 5% DMSO. The plate was then incubated for 40 minutes at room temperature.

[2] = molecular target: Flt1 (Homo sapiens, UniProt P17948); assay: Flt1 kinase activity assay; assay type: biochemical; conditions: under the test conditions employed; read-out: IC50 toward kinase Flt1
[3] = molecular target: T2, Fms (Homo sapiens, UniProt P07333); assay: Fms biochemical assay (AlphaScreen or 33P-ATP); conditions: under the test conditions employed; read-out: IC50 toward kinase Fms
T2 construct: purchased Upstate Biotech 14-551
Text: Each sample was at 5% DMSO.

[4] = molecular target: T3, Kit (Homo sapiens, UniProt P10721); assay: c-kit biochemical assay (AlphaScreen or 33P-ATP); conditions: under the test conditions employed; read-out: IC50 toward kinase Kit
T3 construct: P1332.N6 BI PTP KIT M552-K948-X COD; made in house; host or cells: E. coli BL21(DE3)RIL, co-expressed with PTP1B
Summary of the method: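 Kinase activity read by AlphaScreen or 33P-ATP incorporation, with c-kit enzyme at 1 ng per sample. The enzyme was either commercial or a recombinant human kit construct made from a gene-synthesized coding sequence.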

[5] = molecular target: Src (Homo sapiens, UniProt P12931); assay: Src kinase activity assay; assay type: biochemical; conditions: under the test conditions employed; read-out: IC50 toward kinase Src
[6] = molecular target: Kdr (Homo sapiens, UniProt P35968); assay: Kdr kinase activity assay; assay type: biochemical; conditions: under the test conditions employed; read-out: IC50 toward kinase Kdr
[7] = molecular target: B-Raf V600E/T529I (Homo sapiens, UniProt P15056, T529I/V600E); assay: B-Raf V600E/T529I kinase activity assay; assay type: biochemical; conditions: under the test conditions employed; read-out: IC50 toward kinase B-Raf V600E/T529I
[8] = molecular target: B-Raf (Homo sapiens, UniProt P15056); assay: B-Raf kinase activity assay; assay type: biochemical; conditions: under the test conditions employed; read-out: IC50 toward kinase B-Raf
[9] = molecular target: Fak (Homo sapiens, UniProt Q05397); assay: Fak kinase activity assay; assay type: biochemical; conditions: under the test conditions employed; read-out: IC50 toward kinase Fak
[10] = molecular target: c-Raf-1 (Homo sapiens, UniProt P04049); assay: c-Raf-1 kinase activity assay; assay type: biochemical; conditions: under the test conditions employed; read-out: IC50 toward kinase c-Raf-1
[11] = molecular target: B-Raf V600E (Homo sapiens, UniProt P15056, V600E); assay: B-Raf V600E kinase activity assay; assay type: biochemical; conditions: under the test conditions employed; read-out: IC50 toward kinase B-Raf V600E
[12] = molecular target: FGFR (Homo sapiens, UniProt P11362); assay: FGFR kinase activity assay; assay type: biochemical; conditions: under the test conditions employed; read-out: IC50 toward kinase FGFR
[13] = molecular target: Met (Homo sapiens, UniProt P08581); assay: Met kinase activity assay; assay type: biochemical; conditions: under the test conditions employed; read-out: IC50 toward kinase Met
[14] = molecular target: Btk (Homo sapiens, UniProt Q06187); assay: Btk kinase activity assay; assay type: biochemical; conditions: under the test conditions employed; read-out: IC50 toward kinase Btk
[15] = molecular target: HGK (Homo sapiens, UniProt O95819); assay: HGK (MAP4K4) biochemical assay (AlphaScreen); conditions: under the test conditions employed; read-out: IC50 toward kinase HGK
Summary of the method: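 AlphaScreen kinase assay with 0.5 ng MAP4K4 per sample and 10 nM biotin-ERM substrate, reacted 40 min at room temperature. Stopped with EDTA buffer containing phospho-ERM antibody (1:1000) plus donor and protein A acceptor beads (1 μg/ml final); signal tracks substrate phosphorylation.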

[16] = molecular target: Jnk1 (Homo sapiens, UniProt P45983); assay: Jnk1 kinase activity assay; assay type: biochemical; conditions: under the test conditions employed; read-out: IC50 toward kinase Jnk1

Measured: IC50

T1 sequence (P04629 33-796): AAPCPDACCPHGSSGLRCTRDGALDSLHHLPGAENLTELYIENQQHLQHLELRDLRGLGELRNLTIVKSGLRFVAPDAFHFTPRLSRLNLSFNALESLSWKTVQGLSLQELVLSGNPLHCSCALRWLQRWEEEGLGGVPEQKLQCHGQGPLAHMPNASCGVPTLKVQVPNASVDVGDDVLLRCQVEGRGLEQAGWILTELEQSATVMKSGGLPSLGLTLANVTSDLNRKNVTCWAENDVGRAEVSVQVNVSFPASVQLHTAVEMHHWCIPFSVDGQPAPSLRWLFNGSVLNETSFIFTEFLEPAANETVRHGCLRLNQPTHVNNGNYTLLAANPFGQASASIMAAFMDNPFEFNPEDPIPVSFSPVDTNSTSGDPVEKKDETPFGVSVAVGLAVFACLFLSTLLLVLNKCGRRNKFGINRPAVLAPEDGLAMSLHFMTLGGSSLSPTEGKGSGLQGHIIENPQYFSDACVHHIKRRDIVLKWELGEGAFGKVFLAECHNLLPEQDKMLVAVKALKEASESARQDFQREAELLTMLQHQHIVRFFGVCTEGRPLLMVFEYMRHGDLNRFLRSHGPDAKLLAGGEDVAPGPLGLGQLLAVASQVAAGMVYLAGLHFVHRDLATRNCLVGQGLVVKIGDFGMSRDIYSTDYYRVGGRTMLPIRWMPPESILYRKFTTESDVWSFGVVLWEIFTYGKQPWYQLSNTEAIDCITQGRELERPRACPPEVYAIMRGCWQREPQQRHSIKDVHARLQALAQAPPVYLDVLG
B-Raf V600E/T529I, sequence (P15056 whole entry T529I/V600E): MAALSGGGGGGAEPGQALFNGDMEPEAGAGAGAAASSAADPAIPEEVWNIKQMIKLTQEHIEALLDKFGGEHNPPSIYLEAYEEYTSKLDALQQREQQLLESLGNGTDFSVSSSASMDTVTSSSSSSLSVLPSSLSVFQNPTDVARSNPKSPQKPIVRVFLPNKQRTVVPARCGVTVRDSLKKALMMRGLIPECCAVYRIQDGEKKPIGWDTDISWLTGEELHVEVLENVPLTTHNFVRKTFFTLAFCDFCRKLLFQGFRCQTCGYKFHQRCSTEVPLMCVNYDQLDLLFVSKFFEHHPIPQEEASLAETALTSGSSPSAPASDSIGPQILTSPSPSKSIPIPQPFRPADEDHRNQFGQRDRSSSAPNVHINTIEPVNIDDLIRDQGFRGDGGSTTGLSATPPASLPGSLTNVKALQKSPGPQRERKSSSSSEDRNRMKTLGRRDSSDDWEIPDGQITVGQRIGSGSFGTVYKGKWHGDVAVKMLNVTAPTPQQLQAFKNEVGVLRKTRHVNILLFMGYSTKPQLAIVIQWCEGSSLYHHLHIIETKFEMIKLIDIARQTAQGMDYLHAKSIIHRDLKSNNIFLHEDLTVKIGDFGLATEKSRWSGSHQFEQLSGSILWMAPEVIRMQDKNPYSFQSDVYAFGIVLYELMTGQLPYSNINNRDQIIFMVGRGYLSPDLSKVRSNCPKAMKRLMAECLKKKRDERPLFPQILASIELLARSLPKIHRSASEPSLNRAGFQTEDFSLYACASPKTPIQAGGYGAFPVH
Flt1, sequence (P17948 27-1338): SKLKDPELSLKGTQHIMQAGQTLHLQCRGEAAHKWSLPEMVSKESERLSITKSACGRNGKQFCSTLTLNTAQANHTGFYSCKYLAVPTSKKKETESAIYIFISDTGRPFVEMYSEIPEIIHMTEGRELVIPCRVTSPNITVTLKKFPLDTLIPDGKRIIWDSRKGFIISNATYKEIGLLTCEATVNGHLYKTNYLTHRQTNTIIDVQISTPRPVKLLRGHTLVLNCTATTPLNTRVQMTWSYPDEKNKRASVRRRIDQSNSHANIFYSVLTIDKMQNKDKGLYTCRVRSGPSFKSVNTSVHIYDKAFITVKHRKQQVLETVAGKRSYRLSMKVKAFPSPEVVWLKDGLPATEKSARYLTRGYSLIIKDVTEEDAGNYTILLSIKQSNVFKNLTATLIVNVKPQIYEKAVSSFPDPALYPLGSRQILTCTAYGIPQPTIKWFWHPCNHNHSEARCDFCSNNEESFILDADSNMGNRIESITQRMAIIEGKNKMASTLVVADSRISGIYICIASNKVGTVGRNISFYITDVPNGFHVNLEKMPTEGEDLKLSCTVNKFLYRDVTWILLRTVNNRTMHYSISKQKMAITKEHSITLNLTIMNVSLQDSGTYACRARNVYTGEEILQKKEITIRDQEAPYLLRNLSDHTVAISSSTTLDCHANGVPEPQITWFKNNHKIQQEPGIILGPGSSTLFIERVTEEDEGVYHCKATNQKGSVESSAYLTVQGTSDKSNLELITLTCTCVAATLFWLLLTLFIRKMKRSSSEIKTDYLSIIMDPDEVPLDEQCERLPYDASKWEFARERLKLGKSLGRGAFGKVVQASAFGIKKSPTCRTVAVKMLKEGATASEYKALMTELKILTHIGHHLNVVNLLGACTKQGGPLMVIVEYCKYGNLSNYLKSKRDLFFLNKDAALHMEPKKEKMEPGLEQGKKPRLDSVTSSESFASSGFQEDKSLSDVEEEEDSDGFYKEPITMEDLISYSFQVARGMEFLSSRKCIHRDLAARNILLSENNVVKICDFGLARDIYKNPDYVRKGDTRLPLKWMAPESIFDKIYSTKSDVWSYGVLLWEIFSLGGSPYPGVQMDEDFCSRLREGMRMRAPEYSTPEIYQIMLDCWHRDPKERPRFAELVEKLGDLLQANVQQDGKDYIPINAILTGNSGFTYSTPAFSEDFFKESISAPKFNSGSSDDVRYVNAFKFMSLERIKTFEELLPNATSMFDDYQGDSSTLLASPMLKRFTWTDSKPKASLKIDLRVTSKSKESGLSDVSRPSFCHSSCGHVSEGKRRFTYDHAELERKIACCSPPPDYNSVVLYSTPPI
Src, sequence (P12931 whole entry): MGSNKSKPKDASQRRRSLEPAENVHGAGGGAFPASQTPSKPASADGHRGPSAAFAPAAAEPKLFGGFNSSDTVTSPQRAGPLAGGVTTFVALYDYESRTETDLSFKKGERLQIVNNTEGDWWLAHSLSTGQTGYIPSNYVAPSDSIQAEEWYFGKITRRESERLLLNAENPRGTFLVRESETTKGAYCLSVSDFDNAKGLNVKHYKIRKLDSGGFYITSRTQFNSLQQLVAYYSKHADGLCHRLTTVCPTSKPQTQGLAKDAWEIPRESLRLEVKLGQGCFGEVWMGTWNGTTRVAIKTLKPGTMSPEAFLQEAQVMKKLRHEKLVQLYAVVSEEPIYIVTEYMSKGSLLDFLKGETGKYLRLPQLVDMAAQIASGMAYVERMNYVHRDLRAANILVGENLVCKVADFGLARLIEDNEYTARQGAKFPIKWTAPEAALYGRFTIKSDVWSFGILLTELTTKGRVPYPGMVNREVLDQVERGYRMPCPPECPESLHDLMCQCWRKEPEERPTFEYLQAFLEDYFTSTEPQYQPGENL
B-Raf, sequence (P15056 whole entry): as the sequence (P15056 whole entry T529I/V600E) above, with I529T, E600V counted along it
Kdr, sequence (P35968 20-1356): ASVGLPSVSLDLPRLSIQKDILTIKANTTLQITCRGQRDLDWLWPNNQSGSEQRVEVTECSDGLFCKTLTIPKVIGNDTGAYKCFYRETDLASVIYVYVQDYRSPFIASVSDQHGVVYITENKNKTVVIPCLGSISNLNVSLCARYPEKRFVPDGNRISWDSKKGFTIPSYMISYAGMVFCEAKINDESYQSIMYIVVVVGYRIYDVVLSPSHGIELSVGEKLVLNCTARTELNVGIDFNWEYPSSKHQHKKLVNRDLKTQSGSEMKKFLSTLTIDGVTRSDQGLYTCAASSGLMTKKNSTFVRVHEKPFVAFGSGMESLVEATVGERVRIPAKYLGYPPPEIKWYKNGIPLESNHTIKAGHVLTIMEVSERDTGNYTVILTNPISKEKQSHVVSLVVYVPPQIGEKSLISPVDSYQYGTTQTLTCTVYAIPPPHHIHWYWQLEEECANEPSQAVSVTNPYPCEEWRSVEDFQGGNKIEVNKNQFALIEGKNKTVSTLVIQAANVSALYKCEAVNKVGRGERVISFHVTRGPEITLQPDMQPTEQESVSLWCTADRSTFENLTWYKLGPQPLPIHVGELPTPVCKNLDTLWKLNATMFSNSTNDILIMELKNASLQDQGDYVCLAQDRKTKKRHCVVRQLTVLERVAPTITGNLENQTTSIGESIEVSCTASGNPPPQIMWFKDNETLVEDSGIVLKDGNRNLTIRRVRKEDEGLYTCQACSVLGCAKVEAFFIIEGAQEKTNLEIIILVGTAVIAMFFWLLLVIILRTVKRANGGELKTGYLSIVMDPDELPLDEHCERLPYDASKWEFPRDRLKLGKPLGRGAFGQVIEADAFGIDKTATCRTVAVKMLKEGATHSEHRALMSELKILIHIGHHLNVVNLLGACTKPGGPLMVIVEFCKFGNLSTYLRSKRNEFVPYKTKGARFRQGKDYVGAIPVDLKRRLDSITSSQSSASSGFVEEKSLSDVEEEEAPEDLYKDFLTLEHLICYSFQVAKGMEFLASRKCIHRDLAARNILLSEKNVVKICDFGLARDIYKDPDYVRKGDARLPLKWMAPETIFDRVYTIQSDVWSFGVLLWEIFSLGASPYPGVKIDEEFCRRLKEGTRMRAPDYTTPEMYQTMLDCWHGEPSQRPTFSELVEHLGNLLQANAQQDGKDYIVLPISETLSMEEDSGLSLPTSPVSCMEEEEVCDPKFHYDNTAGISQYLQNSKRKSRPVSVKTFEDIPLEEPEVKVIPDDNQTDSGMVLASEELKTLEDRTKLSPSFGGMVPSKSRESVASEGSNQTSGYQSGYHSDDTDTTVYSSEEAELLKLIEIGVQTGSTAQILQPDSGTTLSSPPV
B-Raf V600E, sequence (P15056 whole entry V600E): as the sequence (P15056 whole entry T529I/V600E) above, with I529T counted along it

Cn1cc(-c2cnc3[nH]cc(Cc4cc(F)c(OCc5nc6ccccc6[nH]5)cc4F)c3c2)cn1 [P-2108, 2-{2,5-Difluoro-4-[5-(1-methyl-1H-pyrazol-4-yl)-1H-pyrrolo[2,3-b]pyridin-3-ylmethyl]-phenoxymethyl}-1H-benzoimidazole]
≤ 10 µM: [1] | [2] | [3] | [4] | [5] | [6]

COc1cc(Cc2c[nH]c3ncccc23)c(Cl)cc1OCc1ccc(Cl)cc1F [P-2166, 3-[2-chloro-4-(4-chloro-2-fluoro-benzyloxy)-5-methoxy-benzyl]-1H-pyrrolo[2,3-b]pyridine]
≤ 10 µM: [3] | [7] | [6]

Fc1cc(Cc2c[nH]c3ncc(Cl)cc23)c(Cl)cc1OCc1cccnc1 [P-2156, 5-Chloro-3-[2-chloro-5-fluoro-4-(pyridin-3-ylmethoxy)-benzyl]-1H-pyrrolo[2,3-b]pyridine]
≤ 10 µM: [3] | [4] | [7] | [6]

COc1cc(Cc2c[nH]c3ncccc23)ccc1OCc1ccc(Cl)cc1 [P-1247, 3-(4-(4-chlorobenzyloxy)-3-methoxybenzyl)-1H-pyrrolo[2,3-b]pyridine]
≤ 10 µM: [2] | [8] | [3] | [9] | [4] | [10] | [5] | [11]

COCCOc1ccc(F)c(Cc2c[nH]c3ncc(Cl)cc23)c1Cl [P-2157, 5-Chloro-3-[2-chloro-6-fluoro-3-(2-methoxy-ethoxy)-benzyl]-1H-pyrrolo[2,3-b]pyridine]
≤ 10 µM: [12] | [3] | [4] | [13] | [6]

Cn1cc(-c2cnc3[nH]cc(C(=O)c4c(F)ccc(OCC(F)(F)F)c4Cl)c3c2)cn1 [P-2145, [2-Chloro-6-fluoro-3-(2,2,2-trifluoro-ethoxy)-phenyl]-[5-(1-methyl-1H-pyrazol-4-yl)-1H-pyrrolo[2,3-b]pyridin-3-yl]-methanone]
≤ 10 µM: [14] | [1] | [2] | [8] | [3] | [4] | [5] | [6]

Cn1cc(-c2cnc3[nH]cc(Cc4cc(F)c(OCc5nc6ccccc6[nH]5)cc4Cl)c3c2)cn1 [P-2109, 2-{5-Chloro-2-fluoro-4-[5-(1-methyl-1H-pyrazol-4-yl)-1H-pyrrolo[2,3-b]pyridin-3-ylmethyl]-phenoxymethyl}-1H-benzoimidazole]
≤ 10 µM: [15] | [1] | [2] | [3] | [4] | [5] | [6]

Cn1cc(-c2cnc3[nH]cc(Cc4c(Cl)ccc(OCC(F)(F)F)c4Cl)c3c2)cn1 [P-2152, 3-[2,6-Dichloro-3-(2,2,2-trifluoro-ethoxy)-benzyl]-5-(1-methyl-1H-pyrazol-4-yl)-1H-pyrrolo[2,3-b]pyridine]
≤ 10 µM: [3] | [7] | [6]

O=C(c1ccc(OCc2ccc(Cl)cc2)c(F)c1)c1c[nH]c2ncccc12 [P-1897, [4-(4-chloro-benzyloxy)-3-fluoro-phenyl]-(1H-pyrrolo[2,3-b]pyridin-3-yl)-methanone]
≤ 10 µM: [16]

Cn1cc(-c2cnc3[nH]cc(Cc4cc(Cl)c(OCc5nc6ccccc6[nH]5)cc4F)c3c2)cn1 [P-2117, 2-{2-Chloro-5-fluoro-4-[5-(1-methyl-1H-pyrazol-4-yl)-1H-pyrrolo[2,3-b]pyridin-3-ylmethyl]-phenoxymethyl}-1H-benzoimidazole]
≤ 10 µM: [1] | [2] | [3] | [4] | [5] | [6]

Cn1cc(-c2cnc3[nH]cc(C(=O)c4c(Cl)ccc(OCC(F)(F)F)c4Cl)c3c2)cn1 [P-2151, [2,6-Dichloro-3-(2,2,2-trifluoro-ethoxy)-phenyl]-[5-(1-methyl-1H-pyrazol-4-yl)-1H-pyrrolo[2,3-b]pyridin-3-yl]-methanone]
≤ 10 µM: [2] | [8] | [3] | [4] | [7] | [5] | [6]

Fc1ccc(OCc2ccccc2)c(F)c1Cc1c[nH]c2ncc(-c3cccnc3)cc12 [P-1455, 3-(3-Benzyloxy-2,6-difluoro-benzyl)-5-pyridin-3-yl-1H-pyrrolo[2,3-b]pyridine]
≤ 10 µM: [12] | [8] | [3] | [9] | [4] | [10] | [11]

Fc1cc(Cc2c[nH]c3ncccc23)ccc1OCc1ccc(Cl)cc1 [P-1896, 3-[4-(4-Chloro-benzyloxy)-3-fluoro-benzyl]-1H-pyrrolo[2,3-b]pyridine]
≤ 10 µM: [16]

COc1cnc2[nH]cc(C(=O)c3c(Cl)ccc(OCC(F)(F)F)c3Cl)c2c1 [P-2154, [2,6-Dichloro-3-(2,2,2-trifluoro-ethoxy)-phenyl]-(5-methoxy-1H-pyrrolo[2,3-b]pyridin-3-yl)-methanone]
≤ 10 µM: [2] | [3] | [7] | [6]
